Test results reported in patent US6987117B2, “Antidepressant azaheterocyclylmethyl derivatives of 1,4-dioxino[2,3-b]pyridine” (Wyeth, priority 2001, dated 2006).
pIC50, pKi: −log10 of the molar value. Counter-ions that a name gives are not always drawn.

Legend:
[1] = biological target: T1, cloned human 5-HT1A receptors (Homo sapiens, UniProt P08908); assay: 35S-GTPγS binding assay, 5-HT1A antagonist activity; type: biochemical; settings: reversal of standard agonist 8-OHDPAT; for pIC50: read-out: 5-HT1A Function IC50
T1 construct: expressed in transfected cells
T1 sequence (P08908 1-422): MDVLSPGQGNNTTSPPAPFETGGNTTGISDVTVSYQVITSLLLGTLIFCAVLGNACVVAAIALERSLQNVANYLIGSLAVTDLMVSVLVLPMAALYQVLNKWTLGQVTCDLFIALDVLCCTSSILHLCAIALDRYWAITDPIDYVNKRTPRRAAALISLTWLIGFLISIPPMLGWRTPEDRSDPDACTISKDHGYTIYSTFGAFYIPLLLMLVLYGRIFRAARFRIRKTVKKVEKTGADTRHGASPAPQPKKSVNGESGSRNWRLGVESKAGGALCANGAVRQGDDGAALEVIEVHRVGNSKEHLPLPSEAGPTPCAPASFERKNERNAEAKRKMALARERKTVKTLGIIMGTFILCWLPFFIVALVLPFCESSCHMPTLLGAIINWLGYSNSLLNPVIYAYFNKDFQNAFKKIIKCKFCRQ
Experimental: Antagonist activity at 5-HT1A receptors was established by using a ^35S-GTPγS binding assay similar to that used by Lazareno and Birdsall (Br. J. Pharmacol. 109: 1120, 1993), in which the test compound's ability to affect the binding of ^35S-GTPγS to membranes containing cloned human 5-HT1A receptors was determined. Agonists produce an increase in binding whereas antagonists produce no increase but rather reverse the effects of the standard agonist 8-OHOPAT. The test compound's maximum inhibitory effect is represented as the Imax, while its potency is defined by the IC50.

human 5-HT1A receptors = biological target: T2, human 5-HT1A receptors (Homo sapiens, UniProt P08908); assay: [3H] 8-OHDPAT displacement, 5-HT1A receptor affinity; type: binding
T2 construct: expressed in transfected cells; host or cells: CHO cells (stably transfected)
T2 sequence (P08908 1-422): T1 sequence (P08908 1-422)
From the text: High affinity for the serotonin 5-HT1A receptor was established by testing the claimed compound's ability to displace [^3H] 8-OHDPAT (dipropylaminotetralin) from the 5-HT1A serotonin receptor following a modification of the procedure of Hall et al., J. Neurochem. 44, 1685 (1985) which utilizes CHO cells stably transfected with human 5-HT1A receptors.

serotonin transporter = biological target: T3, serotonin transporter (Rattus norvegicus, UniProt P31652); assay: 3H-paroxetine displacement, serotonin transporter affinity; type: binding
T3 construct: displace ^3H-paroxetine from male rat frontal cortical membranes; from tissue; host or cells: male rat frontal cortex membranes
T3 sequence (P31652 whole entry): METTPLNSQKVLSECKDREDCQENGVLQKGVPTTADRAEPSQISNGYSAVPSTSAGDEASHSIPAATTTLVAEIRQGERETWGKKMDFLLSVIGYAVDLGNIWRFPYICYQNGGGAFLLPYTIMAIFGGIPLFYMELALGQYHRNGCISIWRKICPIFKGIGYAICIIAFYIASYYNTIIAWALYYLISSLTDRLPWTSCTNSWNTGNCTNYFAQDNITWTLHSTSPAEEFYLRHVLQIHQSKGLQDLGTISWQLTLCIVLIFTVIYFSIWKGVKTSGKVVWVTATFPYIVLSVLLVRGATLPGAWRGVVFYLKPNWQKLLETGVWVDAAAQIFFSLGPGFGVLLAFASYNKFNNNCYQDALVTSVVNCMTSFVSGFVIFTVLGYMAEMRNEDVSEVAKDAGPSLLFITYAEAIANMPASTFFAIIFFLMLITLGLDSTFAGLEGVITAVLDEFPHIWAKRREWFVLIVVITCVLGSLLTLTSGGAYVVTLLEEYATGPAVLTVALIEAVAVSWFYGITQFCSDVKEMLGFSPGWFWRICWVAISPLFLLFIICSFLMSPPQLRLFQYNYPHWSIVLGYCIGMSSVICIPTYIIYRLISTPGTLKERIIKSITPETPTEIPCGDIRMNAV

C1=C(c2c[nH]c3ccccc23)CCN(C[C@H]2COc3cccnc3O2)C1 (as salt: oxalate) [Example 1]
melting point: 116 °C

Fc1ccc2[nH]cc(C3=CCN(CC4COc5cccnc5O4)CC3)c2c1 (centres unmarked) (as salt: oxalate) [Example 2, 3-{[4-(5-Fluoro-1H-indol-3-yl)-3,6-dihydro-1(2H)-pyridinyl]methyl}-2,3-dihydro{1,4]dioxino[2,3-b]pyridine]
melting point: 124 °C

N#Cc1ccc2[nH]cc(C3=CCN(CC4COc5cccnc5O4)CC3)c2c1 (centres unmarked) (as salt: oxalate) [Example 3, 3-{1-[2,3-Dihydro[1,4]dioxino[2,3-b]pyridin-3-ylmethyl]-1,2,3,6-tetrahydro-4-pyridinyl}-1H-indole-5-carbonitrile]
melting point: 165 °C

Fc1ccc2c(C3=CCN(CC4COc5cccnc5O4)CC3)c[nH]c2c1 (centres unmarked) (as salt: oxalate) [Example 4, 3-{[4-(6-Fluoro-1H-indol-3-yl)-3,6-dihydro-1(2H)-pyridinyl]methyl}-2,3-dihydro[1,4]dioxino[2,3-b]pyridine]
melting point: 120 °C

C1=C(c2c[nH]c3ccccc23)CCN(C[C@H]2COc3cccnc3O2)C1 [Example 1]
pIC50 [1]: 6.71 | pKi (human 5-HT1A receptors): 7.84 | pKi (serotonin transporter): 8.02

Fc1ccc2[nH]cc(C3=CCN(CC4COc5cccnc5O4)CC3)c2c1 (centres unmarked) [Example 2, 3-{[4-(5-Fluoro-1H-indol-3-yl)-3,6-dihydro-1(2H)-pyridinyl]methyl}-2,3-dihydro{1,4]dioxino[2,3-b]pyridine]
pIC50 [1]: 7.24 | pKi (human 5-HT1A receptors): 8.17 | pKi (serotonin transporter): 8.62

N#Cc1ccc2[nH]cc(C3=CCN(CC4COc5cccnc5O4)CC3)c2c1 (centres unmarked) [Example 3, 3-{1-[2,3-Dihydro[1,4]dioxino[2,3-b]pyridin-3-ylmethyl]-1,2,3,6-tetrahydro-4-pyridinyl}-1H-indole-5-carbonitrile]
5-HT1A Function Imax (maximum inhibitory effect) [1]: 100% | pIC50 [1]: 6.74 | pKi (human 5-HT1A receptors): 7.65 | pKi (serotonin transporter): 8.59

Fc1ccc2c(C3=CCN(CC4COc5cccnc5O4)CC3)c[nH]c2c1 (centres unmarked) [Example 4, 3-{[4-(6-Fluoro-1H-indol-3-yl)-3,6-dihydro-1(2H)-pyridinyl]methyl}-2,3-dihydro[1,4]dioxino[2,3-b]pyridine]
pIC50 [1]: 6.21 | pKi (human 5-HT1A receptors): 7.99 | pKi (serotonin transporter): 8.92
